Test results as given in publication doi:10.1101/2023.05.15.540887, “Comparative analysis of drug-like EP300/CREBBP acetyltransferase inhibitors” (bioRxiv, 2023).

Assays:
UO-31 = assay: NCI-60 growth inhibition (sulforhodamine B); format: cell-based; conditions: Homo sapiens, UO-31, Renal Cancer, negative log of Molar value, LCONC -8, EXPID 2301NS84
RXF393 [1] = assay: NCI-60 growth inhibition (sulforhodamine B); format: cell-based; conditions: Homo sapiens, RXF 393, Renal Cancer, negative log of Molar value, LCONC -8, EXPID 2301NS84
SF-295 [2] = assay: NCI-60 growth inhibition (sulforhodamine B); format: cell-based, human; conditions: SF-295 (CNS Cancer), negative log of Molar conc., LCONC -8
NCI-H522 = test system: NCI-H522; set-up: method as in ref 29 (a number printed in a supplementary file, which may have a reference list of its own: not looked up in the article's list); conditions: Non-SmallCellLung NCI-H522; highest log conc -4.0; NCI-60 screen data; cited from earlier work
OVCAR-4 = test system: OVCAR-4; set-up: method as in ref 29 (a number printed in a supplementary file, which may have a reference list of its own: not looked up in the article's list); conditions: Ovarian OVCAR-4; highest log conc -4.0; NCI-60 screen data; cited from earlier work
MOLT-4 = test system: MOLT-4; set-up: method as in ref 29 (a number printed in a supplementary file, which may have a reference list of its own: not looked up in the article's list); conditions: Leukemia MOLT-4; highest log conc -4.0; NCI-60 screen data; cited from earlier work
HL-60(TB) = test system: HL-60(TB); set-up: method as in ref 29 (a number printed in a supplementary file, which may have a reference list of its own: not looked up in the article's list); conditions: Leukemia HL-60(TB); highest log conc -4.0; NCI-60 screen data; cited from earlier work
SR = test system: SR; set-up: method as in ref 29 (a number printed in a supplementary file, which may have a reference list of its own: not looked up in the article's list); conditions: Leukemia SR; highest log conc -4.0; NCI-60 screen data; cited from earlier work
A498 = test system: A498; set-up: method as in ref 29 (a number printed in a supplementary file, which may have a reference list of its own: not looked up in the article's list); conditions: Renal A498; highest log conc -4.0; NCI-60 screen data; cited from earlier work
SNB-19 = test system: SNB-19; set-up: method as in ref 29 (a number printed in a supplementary file, which may have a reference list of its own: not looked up in the article's list); conditions: CNS SNB-19; highest log conc -4.0; NCI-60 screen data; cited from earlier work
NCI-H322M = test system: NCI-H322M; set-up: method as in ref 29 (a number printed in a supplementary file, which may have a reference list of its own: not looked up in the article's list); conditions: Non-SmallCellLung NCI-H322M; highest log conc -4.0; NCI-60 screen data; cited from earlier work
SF-539 = test system: SF-539; set-up: method as in ref 29 (a number printed in a supplementary file, which may have a reference list of its own: not looked up in the article's list); conditions: CNS SF-539; highest log conc -4.0; NCI-60 screen data; cited from earlier work
KM12 = test system: KM12; set-up: method as in ref 29 (a number printed in a supplementary file, which may have a reference list of its own: not looked up in the article's list); conditions: Colon KM12; highest log conc -4.0; NCI-60 screen data; cited from earlier work
RXF393 [3] = test system: RXF393; set-up: method as in ref 29 (a number printed in a supplementary file, which may have a reference list of its own: not looked up in the article's list); conditions: Renal RXF393; highest log conc -4.0; NCI-60 screen data; cited from earlier work
MCF7 = test system: MCF7; set-up: method as in ref 29 (a number printed in a supplementary file, which may have a reference list of its own: not looked up in the article's list); conditions: Breast MCF7; highest log conc -4.0; NCI-60 screen data; cited from earlier work
MDA-MB-468 = test system: MDA-MB-468; set-up: method as in ref 29 (a number printed in a supplementary file, which may have a reference list of its own: not looked up in the article's list); conditions: Breast MDA-MB-468; highest log conc -4.0; NCI-60 screen data; cited from earlier work
IGROV1 = test system: IGROV1; set-up: method as in ref 29 (a number printed in a supplementary file, which may have a reference list of its own: not looked up in the article's list); conditions: Ovarian IGROV1; highest log conc -4.0; NCI-60 screen data; cited from earlier work
SF-295 [4] = test system: SF-295; set-up: method as in ref 29 (a number printed in a supplementary file, which may have a reference list of its own: not looked up in the article's list); conditions: CNS SF-295; highest log conc -4.0; NCI-60 screen data; cited from earlier work
CAKI-1 = test system: CAKI-1; set-up: method as in ref 29 (a number printed in a supplementary file, which may have a reference list of its own: not looked up in the article's list); conditions: Renal CAKI-1; highest log conc -4.0; NCI-60 screen data; cited from earlier work
786-0 = test system: 786-0; set-up: method as in ref 29 (a number printed in a supplementary file, which may have a reference list of its own: not looked up in the article's list); conditions: Renal 786-0; highest log conc -4.0; NCI-60 screen data; cited from earlier work
NCI-H23 = test system: NCI-H23; set-up: method as in ref 29 (a number printed in a supplementary file, which may have a reference list of its own: not looked up in the article's list); conditions: Non-SmallCellLung NCI-H23; highest log conc -4.0; NCI-60 screen data; cited from earlier work

| SMILES | GI50 AVGDATA (NCI-H522) | GI50 AVGDATA (OVCAR-4) | GI50 AVGDATA (MOLT-4) | GI50 AVGDATA (HL-60(TB)) | GI50 AVGDATA (SR) | GI50 AVGDATA (A498) | GI50 AVGDATA (SNB-19) | GI50 AVGDATA (NCI-H322M) | GI50 AVGDATA (SF-539) | GI50 AVGDATA (KM12) | GI50 AVGDATA (RXF393 [3]) | GI50 AVGDATA (MCF7) | GI50 AVGDATA (MDA-MB-468) | GI50 AVGDATA (IGROV1) | GI50 AVGDATA (SF-295 [4]) | GI50 AVGDATA (CAKI-1) | GI50 AVGDATA (786-0) | GI50 AVGDATA (NCI-H23) | further results |
| --- | --- | --- | --- | --- | --- | --- | --- | --- | --- | --- | --- | --- | --- | --- | --- | --- | --- | --- | --- |
| C[C@H](CN[C@@H](C(=O)Nc1ccc(-c2cnn(C)c2)cn1)c1ccccc1)c1ccc(C#N)cc1 [CPI-1612] | – | – | – | – | – | – | – | – | – | – | – | – | – | – | – | – | – | – | GI50 (UO-31; read-out: GI50 NLOGVALUE): < 0.01 µM; IC50 (UO-31; read-out: IC50 NLOGVALUE (converted)): 0.0282 µM; CC50 (UO-31; read-out: LC50 NLOGVALUE): > 100 µM; GI50 (RXF393 [1]; read-out: GI50 NLOGVALUE (converted)): 55 µM; IC50 (RXF393 [1]; read-out: IC50 NLOGVALUE): > 100 µM; CC50 (RXF393 [1]; read-out: LC50 NLOGVALUE): > 100 µM; GI50 (SF-295 [2]; Homo sapiens, read-out: GI50 NLOGVALUE): < 0.01 µM; IC50 (SF-295 [2]; Homo sapiens, read-out: IC50 NLOGVALUE (converted)): 4.17 µM; CC50 (SF-295 [2]; Homo sapiens, read-out: LC50 NLOGVALUE): > 100 µM; TGI NLOGVALUE (SF-295 [2]): 4 |
| COC(=O)N1c2ccc3c(nc(Cc4ccccc4)n3[C@H]3CCC[C@H](C(=O)O)C3)c2CC[C@@H]1C [FT-6876] | -4.95 | -5.17 | -4.84 | -5.5 | -4.86 | -4.91 | -4.9 | -4.82 | -4.8 | -4.79 | -4.91 | -6.94 | -5.42 | -4.68 | -4.93 | -5.74 | -5.25 | – | – |
| Cc1sc2c(c1C)C(c1ccc(Cl)cc1)=N[C@@H](CC(=O)OC(C)(C)C)c1nnc(C)n1-2 [JQ-1] | -7.25 | -6.82 | -5.74 | -7.52 | -7.35 | -7.21 | -6.38 | -6.53 | -6.34 | -6.02 | -6.13 | -7.22 | -6.95 | -6.19 | -6.74 | -7.27 | -6.08 | -6.55 | – |
| CO[C@H]1CC[C@H](n2c([C@@H]3CCCC(=O)N3c3ccc(F)c(F)c3)nc3cc(-c4c(C)noc4C)ccc32)CC1 [inobrodib] | -5.53 | -6.11 | -4.77 | -6.07 | -6.12 | -5.22 | -5.03 | -4.94 | -5.01 | -4.86 | -5.32 | -6.2 | -5.4 | -5.34 | -5.17 | -6.19 | – | -4.88 | – |
